Consider 14 compounds from publication PMC9230548, “Synthesis and Biological Evaluation of Novel Synthetic Indolone Derivatives as Anti-Tumor Agents Targeting p53-MDM2 and p53-MDMX” (Molecules, 2022).

A word on the IC50: it is the concentration needed to halve the response being measured. The low end stands for higher potency, the high end for lower potency. In general, Ki refers to a measure of affinity in units of concentration, obtained from inhibition or displacement. A word on the melting point: it is the temperature, or range, at which the solid turns liquid.

In one series the test system is HCT116 cell line. The experiment in a line: MTT assay, HCT116. Format: cell-based. The following applies: average of three determinations. The procedure: (§1) Compounds were tested at six concentrations (0.001–100 μM).
(§2) The cells were seeded into a 96-well plate and allowed to attach overnight, after which various concentrations of test compounds or DMSO were added to the culture medium and the cells were incubated for 48 h at 37 °C in a 5% CO2 humidified incubator. Then, 20 μL of 0.5% the fresh MTT solution was added to each well. After incubation for another 4 h, the culture medium was removed and 150 μL of DMSO was added to dissolve the formazan crystals. The absorbance at 540 nm was measured using a microplate reader. The results, expressed as IC50 values, were the average of three determinations and were calculated using nonlinear regression analysis.

The next series relates to MCF7 cell line. The experiment in a line: MTT assay, MCF7. The note with it: average of three determinations. Format: cell-based. As to the method:
as §1, §2

The subject of another series is A549 cell line. Nature of the series: MTT assay, A549. Format: cell-based. The following applies: average of three determinations. The procedure:
as §1, §2
(In general: Tetrazolium dyes change colour on reduction, which living cells bring about.)

A further series addresses MDM2 (Homo sapiens, UniProt Q00987). Nature of the series: fluorescence polarization assay, MDM2 binding. On the technique in general: In fluorescence polarisation assays a small probe gives low polarisation when free and higher when bound to something large.
In another series the target is T1, MDMX (Homo sapiens, UniProt O15151).
T1 sequence (O15151 1-490): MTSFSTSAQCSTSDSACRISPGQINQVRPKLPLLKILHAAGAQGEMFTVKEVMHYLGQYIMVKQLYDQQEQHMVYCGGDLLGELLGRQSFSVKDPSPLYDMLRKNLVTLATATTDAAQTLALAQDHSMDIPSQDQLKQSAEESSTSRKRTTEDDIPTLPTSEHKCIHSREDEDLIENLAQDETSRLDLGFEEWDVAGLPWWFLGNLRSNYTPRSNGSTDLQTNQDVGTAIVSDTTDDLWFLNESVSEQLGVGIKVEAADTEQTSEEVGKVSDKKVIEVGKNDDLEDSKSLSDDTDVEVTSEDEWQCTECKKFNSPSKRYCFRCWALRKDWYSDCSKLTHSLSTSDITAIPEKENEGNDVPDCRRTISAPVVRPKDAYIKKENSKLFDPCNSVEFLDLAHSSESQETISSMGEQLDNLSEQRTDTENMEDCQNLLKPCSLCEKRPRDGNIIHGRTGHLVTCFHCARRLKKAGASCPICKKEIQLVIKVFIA
Nature of the series: fluorescence polarization assay, MDMX binding.

The subject of series [1] is HCT116 cells with wild type p53. The experiment in a line: Western blotting of p53, MDM2 and MDMX levels. Type of series: cell-based. The following applies: HCT116 cells, 0, 5, 10 and 20 μM, 48 h, Western blot. The procedure:
The dual inhibition of the p53-MDM2 and p53-MDMX interactions is expected to activate p53, increasing its level in the cells with wild-type p53. In addition, p53 activation can also result in an increase in the levels of the MDM2 and MDMX proteins. To verify these predictions, Western blotting was used to assess the effects of compound A13 in the HCT 116 cells. The cells were treated with compound A13 for 48 h. Subsequently, the cells were lysed and protein extracts were analyzed for the levels of p53, MDM2, and MDMX.
The HCT116 cells with wild type p53 were treated with compound A13 (0, 5, 10, and 20 μM) for 48 h. The cells were harvested and lysed with RIPA buffer (Sigma, St. Louis, […], USA) supplemented with a protease inhibitor cocktail (Sigma), followed by centrifugation at 12,000× g for 10 min. The supernatants were heated to 100 °C with loading buffer and the total protein concentrations were determined using a Bio-Rad protein assay. Protein samples were subjected to SDS-PAGE and transferred to a PVDF membrane. The membrane was blocked with 5% non-fat milk, and then incubated with the corresponding primary antibody (MDM2, MDMX, p53, and GAPDH) at 4 °C overnight. After binding with an appropriate secondary antibody conjugated with peroxidase, proteins were visualized using the ECL chemiluminescence system. GAPDH was used as a loading control.
On the technique in general: A western blot detects proteins with antibodies after separation by electrophoresis.

Setting [2] is: read-out: Ki (μM) ± SD MDM2, fluorescence polarization, PMDM-F peptide, pH 7.5.
The mark [3] stands for this setting: read-out: Ki (μM) ± SD MDMX, fluorescence polarization, PMDM-F peptide, pH 7.5.

Like-named read-outs stand apart in the source and are kept apart here.

Sequence of MDM2 (Q00987 whole entry): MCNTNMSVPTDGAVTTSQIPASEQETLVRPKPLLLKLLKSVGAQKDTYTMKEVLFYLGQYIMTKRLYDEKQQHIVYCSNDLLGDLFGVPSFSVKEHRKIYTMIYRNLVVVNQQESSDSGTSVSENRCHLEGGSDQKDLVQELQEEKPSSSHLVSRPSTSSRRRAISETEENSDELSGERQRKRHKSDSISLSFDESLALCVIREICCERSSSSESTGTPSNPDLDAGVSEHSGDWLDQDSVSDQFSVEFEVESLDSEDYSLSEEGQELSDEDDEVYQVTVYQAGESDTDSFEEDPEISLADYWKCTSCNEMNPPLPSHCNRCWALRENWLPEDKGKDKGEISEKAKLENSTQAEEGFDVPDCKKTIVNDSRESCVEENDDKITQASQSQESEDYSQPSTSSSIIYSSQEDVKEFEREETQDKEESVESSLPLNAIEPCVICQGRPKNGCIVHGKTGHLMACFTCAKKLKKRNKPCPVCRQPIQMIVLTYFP

With `O=C1/C(=C/c2ccccc2Cl)c2ccccc2N1S(=O)(=O)c1cccc(Cl)c1` [Compound A6, (E)-3-(2-chlorobenzylidene)-1-((3-chlorophenyl)sulfonyl)indolin-2-one], the IC50 in the series on HCT116 cell line (Homo sapiens, HCT-116, 48 h) stood at 10.7 ± 1.47 µM; in the series on MCF7 cell line (Homo sapiens, MCF7, 48 h), 25.5 ± 3.61 µM; in the series with A549 cell line (Homo sapiens, A549, 48 h), 18.7 ± 2.49 µM. In addition, the inhibition constant Ki at MDM2 worked out at 0.92 ± 0.11 µM; at MDMX, 17.4 ± 2.78 µM.

As to `O=C1/C(=C/c2cccc(Cl)c2)c2ccccc2N1S(=O)(=O)c1ccccc1Cl` [Compound A12, (E)-3-(3-chlorobenzylidene)-1-((2-chlorophenyl)sulfonyl)indolin-2-one], the melting point lay within 125.1 to 126.3 °C. In the series with HCT116 cell line (Homo sapiens, HCT-116, 48 h), this compound came in with an IC50 of 15.4 ± 4.61 µM. The compound also gave an IC50 with MCF7 cell line (Homo sapiens, MCF7, 48 h) of 24.7 ± 2.53 µM. 17.8 ± 2.19 µM corresponded to half-maximal inhibition in the series with A549 cell line (Homo sapiens, A549, 48 h) (IC50). On MDM2, the Ki worked out at 0.19 ± 0.05 µM. Besides, affinity on MDMX was put at a Ki of 20.8 ± 2.01 µM.

Regarding `O=C1/C(=C/c2cccc(Cl)c2)c2ccccc2N1S(=O)(=O)c1cccc(Cl)c1` [Compound A13, (E)-3-(3-chlorobenzylidene)-1-((3-chlorophenyl)sulfonyl)indolin-2-one], the 50% inhibitory concentration (IC50) with HCT116 cell line (Homo sapiens, HCT-116, 48 h) came out at 6.17 ± 0.93 µM; with MCF7 cell line (Homo sapiens, MCF7, 48 h), 11.2 ± 1.95 µM; in the series with A549 cell line (Homo sapiens, A549, 48 h) it was 12.5 ± 2.01 µM. The “expression of MDM2” value in series [1] is “induced in a dose-dependent manner”. Also, the “expression of MDMX” value in series [1] is “induced in a dose-dependent manner”. Also, the “level of p53 proteins” value in series [1] is listed as “dose-dependent increase”. In addition, the Ki on MDM2 is 0.031 ± 0.007 µM; at MDMX, 7.24 ± 0.78 µM.

For `O=C1/C(=C/c2cccc(Cl)c2)c2ccccc2N1S(=O)(=O)c1ccc(Cl)cc1` [Compound A14, (E)-3-(3-chlorobenzylidene)-1-((4-chlorophenyl)sulfonyl)indolin-2-one], the melting point lay within 137.5 to 139.6 °C. Besides, the half-maximal inhibitory concentration (IC50) in the series on HCT116 cell line (Homo sapiens, HCT-116, 48 h) came out at 15.2 ± 3.14 µM. In the series on MCF7 cell line (Homo sapiens, MCF7, 48 h), the IC50 amounted to 20.2 ± 2.86 µM. The same compound had a half-inhibitory concentration (IC50) in the series on A549 cell line (Homo sapiens, A549, 48 h) of 20.3 ± 2.49 µM. The Ki at MDM2 (setting [2]) was 0.082 ± 0.021 µM. In addition, at MDMX (setting [3]), the Ki came out at 18.2 ± 1.39 µM.

With `O=C1/C(=C/c2cccc(Cl)c2)c2ccccc2N1S(=O)(=O)c1ccccc1Br` [Compound A15], the IC50 with HCT116 cell line (48 h) was 23.8 ± 2.69 µM; with MCF7 cell line (48 h), 31.1 ± 3.55 µM; in the series on A549 cell line (48 h) it was 29.1 ± 3.31 µM. Further, the figures for the inhibition constant Ki on MDM2 (setting [2]) and on MDMX (setting [3]) were 0.34 ± 0.12 µM and 24.4 ± 2.57 µM, respectively.

With `O=C1/C(=C/c2cccc(Cl)c2)c2ccccc2N1S(=O)(=O)c1cccc(Br)c1` [Compound A16], the values for the IC50 in the series on HCT116 cell line (48 h), in the series with MCF7 cell line (48 h) and with A549 cell line (48 h) were 21.7 ± 2.59 µM, 26.5 ± 3.4 µM and 25.4 ± 3.62 µM, respectively. Further, the Ki at MDM2 (setting [2]) amounted to 0.079 ± 0.005 µM; on MDMX (setting [3]), 16.2 ± 1.94 µM.

With `O=C1/C(=C/c2cccc(Cl)c2)c2ccccc2N1S(=O)(=O)c1ccc(Br)cc1` [Compound A17], the IC50 was determined as 25.5 ± 3.26 µM with HCT116 cell line (48 h), 37.7 ± 3.65 µM in the series on MCF7 cell line (48 h) and 34.2 ± 3.39 µM in the series on A549 cell line (48 h). Also, the Ki was determined as 0.49 ± 0.15 µM at MDM2 (setting [2]) and 43.2 ± 4.95 µM at MDMX (setting [3]).

As for `O=C1/C(=C/c2cccc(Cl)c2)c2ccccc2N1S(=O)(=O)c1ccccc1F` [Compound A18, (E)-3-(3-chlorobenzylidene)-1-((2-fluorophenyl)sulfonyl)indolin-2-one], the IC50 was 17.9 ± 2.11 µM in the series with HCT116 cell line (Homo sapiens, HCT-116, 48 h); 24.7 ± 3.63 µM in the series with MCF7 cell line (Homo sapiens, MCF7, 48 h); 22.6 ± 2.93 µM in the series on A549 cell line (Homo sapiens, A549, 48 h). The figures for the inhibition constant Ki at MDM2 and at MDMX were 0.17 ± 0.03 µM and 17.7 ± 2.16 µM, respectively.

With `O=C1/C(=C/c2cccc(Cl)c2)c2ccccc2N1S(=O)(=O)c1cccc(F)c1` [Compound A19, (E)-3-(3-chlorobenzylidene)-1-((3-fluorophenyl)sulfonyl)indolin-2-one], the IC50 in the series with HCT116 cell line (Homo sapiens, HCT-116, 48 h) came out at 10.2 ± 1.37 µM; with MCF7 cell line (Homo sapiens, MCF7, 48 h) it was 21 ± 2.58 µM; in the series on A549 cell line (Homo sapiens, A549, 48 h), 16.3 ± 1.82 µM. For the same compound, the results for the Ki on MDM2 and on MDMX were 0.076 ± 0.005 µM and 16.9 ± 1.74 µM, respectively.

For the compound `O=C1/C(=C/c2cccc(Cl)c2)c2ccccc2N1S(=O)(=O)c1ccc(F)cc1` [Compound A20, (E)-3-(3-chlorobenzylidene)-1-((4-fluorophenyl)sulfonyl)indolin-2-one], the melting point was in the range of 141.7 to 143.1 °C. Moreover, in the series on HCT116 cell line (Homo sapiens, HCT-116, 48 h), half-maximal inhibition (IC50) was put at 16.3 ± 2.73 µM. In addition, the IC50 in the series with MCF7 cell line (Homo sapiens, MCF7, 48 h) was found to be 27.2 ± 2.83 µM. Besides, the midpoint of inhibition in the series on A549 cell line (Homo sapiens, A549, 48 h), the IC50, lay at 22.2 ± 2.13 µM. The compound further returned a Ki at MDM2 of 0.23 ± 0.02 µM. The affinity at MDMX, expressed as Ki, was 29.2 ± 3.51 µM.

On to `O=C1/C(=C/c2cccc(Cl)c2)c2ccccc2N1S(=O)(=O)c1cccc(C(F)(F)F)c1` [Compound A21, (E)-3-(3-chlorobenzylidene)-1-((3-(trifluoromethyl)phenyl)sulfonyl)indolin-2-one], for which the IC50 came to 8.91 ± 1.35 µM with HCT116 cell line (Homo sapiens, HCT-116, 48 h); 15.7 ± 2.04 µM with MCF7 cell line (Homo sapiens, MCF7, 48 h); 13.5 ± 2.73 µM in the series on A549 cell line (Homo sapiens, A549, 48 h). The Ki is 0.092 ± 0.007 µM at MDM2 and 19.3 ± 2.69 µM on MDMX.

Regarding `O=C1/C(=C/c2ccc(Cl)cc2)c2ccccc2N1S(=O)(=O)c1cccc(Cl)c1` [Compound A27, (E)-3-(4-chlorobenzylidene)-1-((3-chlorophenyl)sulfonyl)indolin-2-one], the melting point fell in the range of 184.8 to 185.6 °C. This compound registered an IC50 in the series on HCT116 cell line (Homo sapiens, HCT-116, 48 h) of 17.5 ± 1.53 µM. 27.6 ± 3.81 µM corresponded to half-maximal inhibition with MCF7 cell line (Homo sapiens, MCF7, 48 h) (IC50). In the series with A549 cell line (Homo sapiens, A549, 48 h), this compound returned an IC50 of 20.4 ± 1.98 µM. On MDM2 (setting [2]), the Ki was 0.31 ± 0.03 µM. Further, on MDMX (setting [3]), the Ki stood at 17.3 ± 1.91 µM.

Compound `O=C1/C(=C/c2cccc(Cl)c2)c2cc(Cl)ccc2N1S(=O)(=O)c1cccc(Cl)c1` [Compound A29, (E)-5-chloro-3-(3-chlorobenzylidene)-1-((3-chlorophenyl)sulfonyl)indolin-2-one] came in with a melting point of 177.8 to 178.7 °C. In the series with HCT116 cell line (Homo sapiens, HCT-116, 48 h), this compound displayed an IC50 of 17 ± 2.37 µM. Also, in the series with MCF7 cell line (Homo sapiens, MCF7, 48 h), half-maximal inhibition (IC50) required 27.4 ± 3.37 µM. Inhibition in the series on A549 cell line (Homo sapiens, A549, 48 h) was half-maximal at 26.4 ± 4.05 µM (IC50). Moreover, the Ki at MDM2 (setting [2]) was 0.28 ± 0.04 µM. For the same compound, on MDMX (setting [3]), the inhibitory constant (Ki) stood at 32.2 ± 3.24 µM.

Turning to `COc1ccc(C2=N[C@@H](c3ccc(Cl)cc3)[C@@H](c3ccc(Cl)cc3)N2C(=O)N2CCNC(=O)C2)c(OC(C)C)c1` [Nutlin-3a, reference compound], the IC50 in the series on HCT116 cell line (48 h) was found to be 18.1 ± 2.17 µM; in the series on MCF7 cell line (48 h), 32.2 ± 1.49 µM; in the series on A549 cell line (48 h), 21.7 ± 2.04 µM.
